The target in the assay is T1, PFOR (DVU3025, por) (Nitratidesulfovibrio vulgaris, UniProt Q726T1).
T1 construct: native, untagged; in-gel activity band from crude extract identified by LC-MS/MS; homo-octamer (cited)
Put plainly: in-gel activity stain (methyl viologen), band identified by LC-MS/MS. It is filed as biochemical. To be noted: 20 mM pyruvate, 0.1 mM CoA, 2 mM methyl viologen, 16 mM dithioerythritol, 50 mM Tris-HCl pH 8.5, anaerobic.

The structures appear in SMILES notation.

T1 sequence (Q726T1 1-1215): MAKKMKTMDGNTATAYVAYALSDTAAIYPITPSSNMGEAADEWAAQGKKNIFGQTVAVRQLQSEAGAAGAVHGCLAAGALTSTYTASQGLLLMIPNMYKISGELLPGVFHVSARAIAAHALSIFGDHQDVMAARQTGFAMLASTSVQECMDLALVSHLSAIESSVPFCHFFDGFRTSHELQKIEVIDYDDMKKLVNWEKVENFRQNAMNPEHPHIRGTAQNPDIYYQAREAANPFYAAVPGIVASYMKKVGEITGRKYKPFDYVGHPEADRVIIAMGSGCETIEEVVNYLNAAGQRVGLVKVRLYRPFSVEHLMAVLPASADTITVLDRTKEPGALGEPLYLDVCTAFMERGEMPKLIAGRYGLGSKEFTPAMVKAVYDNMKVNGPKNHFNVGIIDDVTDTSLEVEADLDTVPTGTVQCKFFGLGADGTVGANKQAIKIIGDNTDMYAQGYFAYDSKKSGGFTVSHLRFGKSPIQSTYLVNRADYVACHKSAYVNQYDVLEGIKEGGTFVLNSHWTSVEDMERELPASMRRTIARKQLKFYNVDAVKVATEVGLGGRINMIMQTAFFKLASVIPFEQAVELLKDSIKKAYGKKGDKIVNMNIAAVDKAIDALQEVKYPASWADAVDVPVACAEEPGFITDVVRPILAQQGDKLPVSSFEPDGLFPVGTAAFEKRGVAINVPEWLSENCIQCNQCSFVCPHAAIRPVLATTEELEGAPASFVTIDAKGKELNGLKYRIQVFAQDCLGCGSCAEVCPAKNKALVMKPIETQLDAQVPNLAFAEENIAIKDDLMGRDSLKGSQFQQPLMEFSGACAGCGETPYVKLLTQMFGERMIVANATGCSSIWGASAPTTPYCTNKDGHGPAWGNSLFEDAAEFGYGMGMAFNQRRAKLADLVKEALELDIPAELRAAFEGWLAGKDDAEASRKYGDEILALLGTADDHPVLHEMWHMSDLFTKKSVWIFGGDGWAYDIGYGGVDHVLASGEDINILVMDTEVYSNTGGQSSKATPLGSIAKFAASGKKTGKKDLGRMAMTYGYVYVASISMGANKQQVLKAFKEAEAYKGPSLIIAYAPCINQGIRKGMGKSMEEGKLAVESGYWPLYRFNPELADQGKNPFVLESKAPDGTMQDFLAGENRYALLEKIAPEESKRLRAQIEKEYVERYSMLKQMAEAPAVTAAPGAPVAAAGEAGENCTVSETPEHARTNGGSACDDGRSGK

Consider `CC(C)(COP(=O)(O)OP(=O)(O)OC[C@H]1O[C@@H](n2cnc3c(N)ncnc32)[C@H](O)[C@@H]1OP(=O)(O)O)[C@@H](O)C(=O)NCCC(=O)NCCS` [CoA], for which the “in-gel activity stain (methyl viologen), band identified by LC-MS/MS” value is “Two bands were stained with methyl viologen in the presence of pyruvate and CoA”.
Regarding `CC(=O)C(=O)O` [pyruvate], the “in-gel activity stain (methyl viologen), band identified by LC-MS/MS” value was “Two bands were stained with methyl viologen in the presence of pyruvate and CoA”.

Values taken from paper PMC4481167, “The primary pathway for lactate oxidation in Desulfovibrio vulgaris” (Frontiers in Microbiology, 2015).
